Here are results for four compounds from US20230270809A1, “VETERINARY COMPOSITIONS FOR THE TREATMENT AND/OR PREVENTION OF PROTOZOAN DISEASES AND METHODS OF PREPARATION THEREOF” (ADIFEED SP. Z O. O., priority 2020, published 2023).

One test concerns Trypanosoma cruzi. The settings on record: read-out: inhibitory effect on 50% of the population (IC50), Becco et al. 2012; cited from earlier work.
Test [1] relates to Trypanosoma cruzi and Leishmania chagasi. Particulars: Escobar et al. 2010; cited from earlier work.
Another test has as its system Euglena gracilis. Briefly: in vitro protozoicidal test on Euglena gracilis (watch glass, microscope). It is filed as cell-based. Particulars: concentration giving death of 100% of individuals within 3 minutes, in aqueous polysorbate 80 (0.05%).
A further test concerns Gregarina blattarum. In words: in vitro protozoicidal test on gregarines isolated from cockroaches. Particulars: Ringer's solution; for LD100: lethal concentration for 100% of individuals within 3 minutes. It is filed as cell-based. The source says:
For in vitro tests of antiprotozoal activity of the composition five reference organisms representing taxonomic groups to which pathogenic protozoa belong were selected, i.e: • Amoeba proteus—Chaos diffluens—a protozoan of the order Euamoebida, belonging to fifth supergroup of the Amoebozoa, living in waters. • Paramecium caudatum—a slipper animalcule representing the Ciliata orachs, living in waters. • Gregarina blattarum—gregarine isolated from cockroaches, representing the phylum Apicomplexa, living in the digestive tracts or body cavities of invertebrates. • Euglena gracilis—a protozoan living in water, representing the flagellates—Mastigophora, family Euglenaceae. • Trichomonas hominis—a protozoan living in the human colon, representing the Trichomonadidae.
The gregarines were isolated from the cockroaches and, after being placed on a watch slide, were treated with the products at different concentrations in Ringer's solution. Each sample contained ten individuals.
The compositions, negative controls, and positive controls were dissolved in an aqueous solution of polysorbate 80 (0.05%) before application to a watch slide.
Compositions I and II were then analysed for their antiprotozoal properties. […]
Individual acids, catalyst solution, essential oil and metal salt solutions were also analysed for protozoal properties. […] Observation under a fluorescence microscope with phase contrast was carried out.

Another test concerns Amoeba proteus. Briefly: in vitro protozoicidal test on Amoeba proteus (watch glass, microscope). The format is cell-based. The settings on record: in aqueous polysorbate 80 (0.05%); for LD100: concentration giving death of 100% of individuals within 3 minutes.
Another test relates to Paramecium caudatum. In words: in vitro protozoicidal test on Paramecium caudatum (watch glass, microscope). It is filed as cell-based. The settings on record: concentration giving death of 100% of individuals within 3 minutes, in aqueous polysorbate 80 (0.05%).
Another test deals with Trichomonas hominis. Briefly: in vitro protozoicidal test on Trichomonas hominis (watch glass, microscope). The format is cell-based. Particulars: in aqueous polysorbate 80 (0.05%); for LD100: concentration giving death of 100% of individuals within 3 minutes.
Where [2] appears, read: concentration giving death of 50% of individuals within 3 minutes.

What is called IC50 is the midpoint of a concentration-inhibition curve. With `CC1CS(=O)(=O)CCN1/N=C/c1ccc([N+](=O)[O-])o1` (stereo not shown) [Nifurtimox], the IC50 was 6 µM in the test on Trypanosoma cruzi and 0.3 to 0.4 µg/mL in test [1].
“zinc carbonate [Zinc carbonate solution]”: the LD100 in the test on Euglena gracilis turned out to be 0.3%; with Gregarina blattarum, 0.4%; with Amoeba proteus, 0.25%; in the test with Paramecium caudatum it was 0.5%; in the test on Trichomonas hominis, 0.4%.
`Cc1ncc([N+](=O)[O-])n1CCO` [M, metronidazole, reference compound]: the results for the LD50 in the test on Gregarina blattarum (lethal concentration for 50% of individuals within 3 minutes), in the test on Amoeba proteus (setting [2]) and in the test with Trichomonas hominis (setting [2]) were 0.13%, 0.3% and 0.05%, respectively. Moreover, the LD100 is given as 0.3% with Gregarina blattarum, 0.5% in the test on Amoeba proteus and 0.1% in the test on Trichomonas hominis.
“copper carbonate [Copper carbonate solution]”: the values for the LD100 in the test on Euglena gracilis, in the test on Paramecium caudatum and with Trichomonas hominis were 0.25%, 0.5% and 0.3%, respectively.
